The results in this text go back to patent US20260274829A1, “NEW E3 UBIQUITIN LIGASE LIGAND, PROTEIN DEGRADATION AGENT AND USE THEREOF” (GLUETACS THERAPEUTICS (SHANGHAI) CO., LTD., priority 2023, published 2026).

The IC50 is the concentration that inhibits the measured activity by half. Read a high IC50 as lower potency.

T1 sequence (Q96SW2 whole entry): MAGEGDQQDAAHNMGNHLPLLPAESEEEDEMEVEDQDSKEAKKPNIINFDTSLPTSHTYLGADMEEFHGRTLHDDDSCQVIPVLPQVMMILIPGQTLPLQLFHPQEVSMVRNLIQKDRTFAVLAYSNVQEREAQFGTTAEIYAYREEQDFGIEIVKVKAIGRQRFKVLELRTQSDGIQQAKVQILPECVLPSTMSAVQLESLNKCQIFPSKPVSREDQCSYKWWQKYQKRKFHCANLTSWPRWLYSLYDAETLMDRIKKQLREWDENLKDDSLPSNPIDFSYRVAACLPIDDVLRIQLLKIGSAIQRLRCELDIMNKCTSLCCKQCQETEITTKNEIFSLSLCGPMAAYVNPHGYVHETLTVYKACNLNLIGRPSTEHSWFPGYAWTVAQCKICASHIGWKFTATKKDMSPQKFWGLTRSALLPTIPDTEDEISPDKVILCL

This assay addresses T1, human Cereblon WT GST-tagged protein (Homo sapiens, UniProt Q96SW2).
T1 construct: purchased CISBIO 64BDCRBNPEH
In words: CRBN binding, HTRF CEREBLON BINDING kit. As to conditions: CRBN binding, HTRF CEREBLON BINDING kit. Put shortly:
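HTRF competition in which test compounds displace a Thalidomide-Re tracer from GST-tagged human Cereblon WT, detected with a GST Eu antibody. Incubation lasted 3 hours at room temperature, with emission read at 620 and 665 nm. Inhibition rate was derived from 665/620 ratios relative to blank and solvent control wells.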
Background: In TR-FRET formats the signal depends on donor and acceptor labels being close together.
As to `O=C1CCC(c2ccc(CN3CCN(c4ccc(-c5cc(F)c6c(c5)C(=O)N(C(C(=O)Nc5nccs5)c5ncn7c5CCC7)C6)cc4)CC3)nc2)C(=O)N1` (stereo not shown) [GT-07381, 2-(6,7-dihydro-5H-pyrrolo[1,2-c]imidazol-1-yl)-2-(6-(4-(4-((5-(2,6-dioxopiperidin-3-yl)pyridin-2-yl)methyl)piperazin-1-yl)phenyl)-4-fluoro-1-oxoisoindolin-2-yl)-N-(thiazol-2-yl)acetamide], the half-maximal inhibitory concentration (IC50) is < 500 nM.

In turn, `CN(Cc1cc(N2CCC(=O)NC2=O)ncc1F)C1CCN(c2ccc(-c3cc(F)c4c(c3)C(=O)N(C(C(=O)Nc3nccs3)c3ncn5c3CCC5)C4)cc2)CC1` (stereo not shown) [GT-07382, 2-(6,7-dihydro-5H-pyrrolo[1,2-c]imidazol-1-yl)-2-(6-(4-(4-(((2-(2,4-dioxotetrahydropyrimidin-1(2H)-yl)-5-fluoropyridin-4-yl)methyl)(methyl)amino)piperidin-1-yl)phenyl)-4-fluoro-1-oxoisoindolin-2-yl)-N-(thiazol-2-yl)acetamide] came in with an IC50 of 500 to 1000 nM.

In turn, `CN(Cc1ccnc(N2CCC(=O)NC2=O)c1)C1CCN(c2ccc(-c3cc(F)c4c(c3)C(=O)N(C(C(=O)Nc3nccs3)c3ncn5c3CCC5)C4)cc2)CC1` (stereo not shown) [GT-07383, 2-(6,7-dihydro-5H-pyrrolo[1,2-c]imidazol-1-yl)-2-(6-(4-(4-(((2-(2,4-dioxotetrahydropyrimidin-1(2H)-yl)pyridin-4-yl)methyl)(methyl)amino)piperidin-1-yl)phenyl)-4-fluoro-1-oxoisoindolin-2-yl)-N-(thiazol-2-yl)acetamide] registered an IC50 of 500 to 1000 nM.

Take `CN(Cc1cncc(N2CCC(=O)NC2=O)c1)C1CCN(c2ccc(-c3cc(F)c4c(c3)C(=O)N(C(C(=O)Nc3nccs3)c3ncn5c3CCC5)C4)cc2)CC1` (stereo not shown) [GT-07384, 2-(6,7-dihydro-5H-pyrrolo[1,2-c]imidazol-1-yl)-2-(6-(4-(4-(((5-(2,4-dioxotetrahydropyrimidin-1(2H)-yl)pyridin-3-yl)methyl)(methyl)amino)piperidin-1-yl)phenyl)-4-fluoro-1-oxoisoindolin-2-yl)-N-(thiazol-2-yl)acetamide]: the IC50 is < 500 nM.

Consider `CN(Cc1ccc(C2CCC(=O)NC2=O)cn1)C1CCN(c2ccc(-c3cc(F)c4c(c3)C(=O)N(C(C(=O)Nc3nccs3)c3ncn5c3CCC5)C4)cc2)CC1` (stereo not shown) [GT-07385, 2-(6,7-dihydro-5H-pyrrolo[1,2-c]imidazol-1-yl)-2-(6-(4-(4-(((5-(2,6-dioxopiperidin-3-yl)pyridin-2-yl)methyl)(methyl)amino)piperidin-1-yl)phenyl)-4-fluoro-1-oxoisoindolin-2-yl)-N-(thiazol-2-yl)acetamide], for which the IC50 is < 500 nM.

As to `O=C1CCN(c2cc(CN3C[C@H]4C[C@@H]3CN4c3ccc(-c4cc(F)c5c(c4)C(=O)N(C(C(=O)Nc4nccs4)c4ncn6c4CCC6)C5)cc3)c(F)cn2)C(=O)N1` (stereo partly drawn) [GT-07386, 2-(6,7-dihydro-5H-pyrrolo[1,2-c]imidazol-1-yl)-2-(6-(4-((1R,4R)-5-((2-(2,4-dioxotetrahydropyrimidin-1(2H)-yl)-5-fluoropyridin-4-yl)methyl)-2,5-diazabicyclo[2.2.1]heptan-2-yl)phenyl)-4-fluoro-1-oxoisoindolin-2-yl)-N-(thiazol-2-yl)acetamide], the IC50 fell in the range of 1000 to 1900 nM.

Compound `O=C1CCN(c2cc(CN3C[C@H]4C[C@@H]3CN4c3ccc(-c4cc(F)c5c(c4)C(=O)N(C(C(=O)Nc4nccs4)c4ncn6c4CCC6)C5)cc3)ccn2)C(=O)N1` (stereo partly drawn) [GT-07387, 2-(6,7-dihydro-5H-pyrrolo[1,2-c]imidazol-1-yl)-2-(6-(4-((1R,4R)-5-((2-(2,4-dioxotetrahydropyrimidin-1(2H)-yl)pyridin-4-yl)methyl)-2,5-diazabicyclo[2.2.1]heptan-2-yl)phenyl)-4-fluoro-1-oxoisoindolin-2-yl)-N-(thiazol-2-yl)acetamide] yielded an IC50 of 1000 to 1900 nM.

Consider `O=C1CCN(c2cncc(CN3C[C@H]4C[C@@H]3CN4c3ccc(-c4cc(F)c5c(c4)C(=O)N(C(C(=O)Nc4nccs4)c4ncn6c4CCC6)C5)cc3)c2)C(=O)N1` (stereo partly drawn) [GT-07388, 2-(6,7-dihydro-5H-pyrrolo[1,2-c]imidazol-1-yl)-2-(6-(4-((1R,4R)-5-((5-(2,4-dioxotetrahydropyrimidin-1(2H)-yl)pyridin-3-yl)methyl)-2,5-diazabicyclo[2.2.1]heptan-2-yl)phenyl)-4-fluoro-1-oxoisoindolin-2-yl)-N-(thiazol-2-yl)acetamide], for which the half-inhibitory concentration (IC50) was < 500 nM.

Turning to `O=C1CCC(c2ccc(CN3C[C@H]4C[C@@H]3CN4c3ccc(-c4cc(F)c5c(c4)C(=O)N(C(C(=O)Nc4nccs4)c4ncn6c4CCC6)C5)cc3)nc2)C(=O)N1` (stereo partly drawn) [GT-07389, 2-(6,7-dihydro-5H-pyrrolo[1,2-c]imidazol-1-yl)-2-(6-(4-((1R,4R)-5-((5-(2,6-dioxopiperidin-3-yl)pyridin-2-yl)methyl)-2,5-diazabicyclo[2.2.1]heptan-2-yl)phenyl)-4-fluoro-1-oxoisoindolin-2-yl)-N-(thiazol-2-yl)acetamide], the IC50 is < 500 nM.

On to `O=C1CCC(c2cc(CN3C[C@H]4C[C@@H]3CN4c3ccc(-c4cc(F)c5c(c4)C(=O)N(C(C(=O)Nc4nccs4)c4ncn6c4CCC6)C5)cc3)ccn2)C(=O)N1` (stereo partly drawn) [GT-07390, 2-(6,7-dihydro-5H-pyrrolo[1,2-c]imidazol-1-yl)-2-(6-(4-((1R,4R)-5-((2-(2,6-dioxopiperidin-3-yl)pyridin-4-yl)methyl)-2,5-diazabicyclo[2.2.1]heptan-2-yl)phenyl)-4-fluoro-1-oxoisoindolin-2-yl)-N-(thiazol-2-yl)acetamide], for which the IC50 lay within 500 to 1000 nM.

Take `O=C1CCC(c2cncc(CN3C[C@H]4C[C@@H]3CN4c3ccc(-c4cc(F)c5c(c4)C(=O)N(C(C(=O)Nc4nccs4)c4ncn6c4CCC6)C5)cc3)c2)C(=O)N1` (stereo partly drawn) [GT-07391, 2-(6,7-dihydro-5H-pyrrolo[1,2-c]imidazol-1-yl)-2-(6-(4-((1R,4R)-5-((5-(2,6-dioxopiperidin-3-yl)pyridin-3-yl)methyl)-2,5-diazabicyclo[2.2.1]heptan-2-yl)phenyl)-4-fluoro-1-oxoisoindolin-2-yl)-N-(thiazol-2-yl)acetamide]: the IC50 is < 500 nM.

As for `O=C1CCC(c2cc(CN3CCN(c4ccc(-c5cc(F)c6c(c5)C(=O)N(C(C(=O)Nc5nccs5)c5ncn7c5CCC7)C6)cc4)CC3)ccn2)C(=O)N1` (stereo not shown) [GT-07392, 2-(6,7-dihydro-5H-pyrrolo[1,2-c]imidazol-1-yl)-2-(6-(4-(4-((2-(2,6-dioxopiperidin-3-yl)pyridin-4-yl)methyl)piperazin-1-yl)phenyl)-4-fluoro-1-oxoisoindolin-2-yl)-N-(thiazol-2-yl)acetamide], the IC50 is 1000 to 1900 nM.

On to `CN(Cc1cncc(C2CCC(=O)NC2=O)c1)C1CCN(c2ccc(-c3cc(F)c4c(c3)C(=O)N(C(C(=O)Nc3nccs3)c3ncn5c3CCC5)C4)cc2)CC1` (stereo not shown) [GT-07393, 2-(6,7-dihydro-5H-pyrrolo[1,2-c]imidazol-1-yl)-2-(6-(4-(4-(((5-(2,6-dioxopiperidin-3-yl)pyridin-3-yl)methyl)(methyl)amino)piperidin-1-yl)phenyl)-4-fluoro-1-oxoisoindolin-2-yl)-N-(thiazol-2-yl)acetamide], for which the IC50 was < 500 nM.
